Data taken from US20210261561A1, “BICYCLIC HETEROCYCLE DERIVATIVES HAVING SELECTIVE BACE1 INHIBITORY ACTIVITY” (SHIONOGI & CO., LTD., priority 2018, published 2021).

Columns and labels:
BACE1 [1] = molecular target: T1, BACE1 (Homo sapiens, UniProt P56817); test: BACE1 biochemical FRET based assay - Method 1 (Test Example 2-2); conditions: 0.04 μg/mL BACE1, 450 minutes, Citrate buffer pH 5.0, read-out: BACE1 Biochemical FRET based assay - Method 1 PIC50 (converted)
Text: (§1) This assay is a Fluorescence Resonance Energy Transfer Assay (FRET) based assay. The substrate for this assay is an APP derived 13 amino acids peptide that contains the ‘Swedish’ Lys-Met/Asn-Leu mutation of the amyloid precursor protein (APP) beta-site secretase cleavage site. This substrate also contains two fluorophores: (7-methoxycoumarin-4-yl) acetic acid (Mca) is a fluorescent donor with excitation wavelength at 320 nm and emission at 405 nm and 2,4-dinitrophenol (Dnp) is a proprietary quencher acceptor. […] Upon cleavage by BACE1, the fluorophore Mca is separated from the quenching group Dnp, restoring the full fluorescence yield of the donor. The increase in fluorescence is linearly related to the rate of proteolysis.
Briefly in a 384-well format recombinant BACE1 protein in a final concentration of 0.04 μg/mL is incubated for 450 minutes at room temperature with […] substrate in incubation buffer (final concentrations: 33.3 mM Citrate buffer pH 5.0, 0.033% PEG, 3% DMSO) in the absence or presence of compound. Next the amount of proteolysis is directly measured by fluorescence measurement at T=0′-120′ and T=450′ (excitation at 320 nm and emission at 405 nm). Results are expressed in RFU (Relative Fluorescence Units), as difference between T450 and Tx (Tx is chosen depending on the reaction speed between 0 and 120 minutes.).
(§2) Data are analysed using Screener (Registered trademark) (Genedata, Switzerland). Data were normalized and % inhibition=100−[(sample−LC)/(HC−LC))*100], was plotted versus the log concentration of the test compound. Curves were analysed using non-linear regression analysis and IC50 values (inhibitory concentration causing 50% inhibition of activity) were derived from individual curves.
(§3) LC=Median of the low control values
(§4) =Low control: Reaction without enzyme
(§5) HC=Median of the High control values
(§6) =High Control: Reaction with enzyme
(§7) % Inhibition=100−[(sample−LC)/(HC−LC)*100]

BACE2 = molecular target: T2, BACE2 (Homo sapiens, UniProt Q9Y5Z0); test: BACE2 biochemical FRET based assay (Test Example 2-4); conditions: recombinant BACE2 0.4 μg/mL, 10 μM substrate, 450 minutes, pH 5.0; read-out: BACE2 Biochemical FRET based assay pIC50 (converted)
T2 sequence (Q9Y5Z0 63-518): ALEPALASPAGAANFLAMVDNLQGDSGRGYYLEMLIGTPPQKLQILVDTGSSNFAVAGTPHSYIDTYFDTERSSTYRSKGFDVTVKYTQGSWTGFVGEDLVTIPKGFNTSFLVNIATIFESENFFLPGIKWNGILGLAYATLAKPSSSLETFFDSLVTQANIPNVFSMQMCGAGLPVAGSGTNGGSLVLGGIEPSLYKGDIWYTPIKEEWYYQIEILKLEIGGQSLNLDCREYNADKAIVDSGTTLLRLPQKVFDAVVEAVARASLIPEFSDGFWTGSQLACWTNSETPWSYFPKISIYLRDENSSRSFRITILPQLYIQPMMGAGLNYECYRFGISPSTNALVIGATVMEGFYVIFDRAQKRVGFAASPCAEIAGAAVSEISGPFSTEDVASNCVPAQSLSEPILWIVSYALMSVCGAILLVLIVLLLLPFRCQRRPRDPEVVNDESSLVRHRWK
Text: as §1, with “assay” for “assay is an APP derived 13 amino acids peptide that”, “beta-secretase” for “beta-site secretase”, “the beta-secretase,” for “BACE1,”
Briefly in a 384-well format recombinant BACE2 protein in a final concentration of 0.4 μg/mL is incubated for 450 minutes at room temperature with 10 μM substrate in incubation buffer (final concentrations: 33.3 mM Citrate buffer pH 5.0, 0.033% PEG, 2% DMSO) in the absence or presence of compound. Next the amount of proteolysis is directly measured by fluorescence measurement at T=0 and T=450 (excitation at 320 nm and emission at 405 nm). Results are expressed in RFU (Relative Fluorescence Units), as difference between T450 and TO.
as §2, §3, §4, §5, §6, §7

[2] = tested on: Abeta 1-37, Abeta 1-38, Abeta 1-40 and Abeta 1-42 in cerebrospinal fluid (CSF); test: Pharmacology in the beagle dog, beta-amyloid profile in CSF (Test Example 18-2); format: in vivo; conditions: single dose 0.63 mg/kg
Experimental: Test compounds were tested to evaluate the effect on the beta-amyloid profile in cerebrospinal fluid (CSF) of dogs after a single dose, in combination with pharmacokinetic (PK) follow up and limited safety evaluation.
For each of compound II-6 or II-10, four beagle dogs (2 males, 2 females) were dosed with vehicle (1 mL/kg of an aqueous solution of 20% cyclodextrin) and 12 beagle dogs (2 males and 2 females per dosage group) were dosed with test compounds as follows:
In the case of compounds II-2, II-3 and II-18, two beagle dogs (1 male, 1 female) were dosed with vehicle (1 mL/kg of an aqueous solution of 20% cyclodextrin) and 4 beagle dogs (2 males and 2 females) were dosed with test compound (II-2, II-3, or II-18) at the doses indicated in the following Table in an aqueous 20% cyclodextrin solution with a concentration in mg/mL identical to the dose given in mg/kg) on an empty stomach.
CSF was taken in conscious animals directly from the lateral ventricle via a cannula which was screwed in the skull and covered with subcutaneous tissue and skin, before and at 4, 8, 25 and 49 hours after dosing. Eight hours after dosing the animals got access to their regular meal for 30 minutes. Blood was taken for PK follow up (0.5, 1, 2, 4, 8, 25 and 49 hours) and serum samples for biochemistry were taken before and at 8 and 25 h after dosing. The CSF samples were used for measurement of Abeta 1-37, Abeta 1-38, Abeta 1-40 and Abeta 1-42.

BACE1 [3] = molecular target: T1, BACE1; test: BACE1 cellular αLisa assay in SKNBE2 cells, Abeta 1-42 (Test Example 2-3); format: cell-based; set-up: endogenous in cells; host or cells: SKNBE2 human neuroblastoma cells expressing hAPP695; conditions: SKNBE2 cells expressing hAPP695, 18 hours incubation, read-out: Cellular αLisa assay in SKNBE2 cells Abeta 42 pIC50 (converted)
Experimental: In two αLisa assays the levels of Abeta 1-42 or Abeta total produced and secreted into the medium of human neuroblastoma SKNBE2 cells are quantified. The assays are based on the human neuroblastoma SKNBE2 expressing the wild type Amyloid Precursor Protein (hAPP695). The compounds are diluted and added to these cells, incubated for 18 hours and then measurements of Abeta 1-42 or Abeta total are taken. Abeta 1-42 or Abeta total are measured by sandwich αLisa using biotinylated antibody AbN/25 attached to streptavidin coated donor beads and antibody cAb42/26 or Ab 4G8 conjugated acceptor beads for the detection of Abeta 1-42 or Abeta total respectively. In the presence of Abeta 1-42 or Abeta total, the beads come into close proximity. The excitation of the donor beads provokes the release of singlet oxygen molecules that trigger a cascade of energy transfer in the acceptor beads, resulting in light emission. Light emission is measured after 1 h incubation (excitation at […] and emission at 615 nm).
as §2
LC=Median of the low control values • =Low control: Reaction without enzyme
HC=Median of the High control values • =High Control: Reaction with enzyme
as §7

T1 sequence (P56817 46-501): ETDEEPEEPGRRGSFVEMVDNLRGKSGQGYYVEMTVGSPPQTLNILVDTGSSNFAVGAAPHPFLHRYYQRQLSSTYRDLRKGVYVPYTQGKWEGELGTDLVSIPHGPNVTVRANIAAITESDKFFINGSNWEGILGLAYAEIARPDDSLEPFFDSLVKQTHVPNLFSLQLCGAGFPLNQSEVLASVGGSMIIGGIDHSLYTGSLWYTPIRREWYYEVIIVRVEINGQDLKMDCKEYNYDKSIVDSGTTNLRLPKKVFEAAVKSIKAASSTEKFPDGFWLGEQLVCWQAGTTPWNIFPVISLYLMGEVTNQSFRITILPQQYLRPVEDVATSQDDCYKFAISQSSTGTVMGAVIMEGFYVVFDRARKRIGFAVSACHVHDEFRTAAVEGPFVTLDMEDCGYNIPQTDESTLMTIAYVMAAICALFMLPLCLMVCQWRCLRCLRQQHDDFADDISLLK

SMILES: CC1(S(C)(=O)=O)CCC(CF)(c2cc(NC(=O)c3cc4c(cn3)OC(F)(F)O4)cc(F)c2F)N=C1N (stereo not drawn) [II-18]
- IC50 (BACE1 [1]): 3.24 nM
- IC50 (BACE2): 240 nM
- % Decrease in Abeta 1-42 at 8 h post dosing compared to own baseline ([2]; 8 h): 53%
- % Decrease in Abeta 1-42 at 24 h^(a) or 25 h^(b) post dosing compared to own baseline ([2]; 24 h or 25 h): 27%
- melting point: 195 °C
- IC50 (BACE1 [3]): 4.47 nM
